Laboratory results taken from ChEMBL document CHEMBL3751755, “Developing steroidal aromatase inhibitors-an effective armament to win the battle against breast cancer” (Eur J Med Chem, 2015).

Experiments:
Aromatase [1] = target: T1, Aromatase (Homo sapiens, UniProt P11511); test: Time dependent inhibition of human aromatase extracted from placental microsomes using [1beta,2beta-3H]-testosterone as substrate after 10 mins by scintillation counting analysis
T1 sequence (P11511 whole entry): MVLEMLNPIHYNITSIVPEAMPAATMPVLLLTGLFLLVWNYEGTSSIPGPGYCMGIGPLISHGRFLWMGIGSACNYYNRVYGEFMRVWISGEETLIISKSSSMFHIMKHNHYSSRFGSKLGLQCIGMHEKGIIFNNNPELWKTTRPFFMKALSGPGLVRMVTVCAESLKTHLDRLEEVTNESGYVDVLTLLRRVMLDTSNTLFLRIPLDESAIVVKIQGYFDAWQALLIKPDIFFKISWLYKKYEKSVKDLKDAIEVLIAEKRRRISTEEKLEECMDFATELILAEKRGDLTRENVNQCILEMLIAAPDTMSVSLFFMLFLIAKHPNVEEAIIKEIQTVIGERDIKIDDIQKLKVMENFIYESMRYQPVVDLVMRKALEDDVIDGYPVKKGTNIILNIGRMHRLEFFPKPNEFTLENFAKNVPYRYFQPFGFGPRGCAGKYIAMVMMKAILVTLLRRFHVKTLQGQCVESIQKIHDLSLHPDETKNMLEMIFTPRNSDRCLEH

Aromatase [2] = target: T2, Aromatase (Rattus norvegicus, UniProt P22443); test: Inhibition of aromatase in denucleated ovarian fraction extracted from PMSG pretreated Wistar rat using testosterone as substrate at 10 uM by radioimmuno assay
T2 sequence (P22443 whole entry): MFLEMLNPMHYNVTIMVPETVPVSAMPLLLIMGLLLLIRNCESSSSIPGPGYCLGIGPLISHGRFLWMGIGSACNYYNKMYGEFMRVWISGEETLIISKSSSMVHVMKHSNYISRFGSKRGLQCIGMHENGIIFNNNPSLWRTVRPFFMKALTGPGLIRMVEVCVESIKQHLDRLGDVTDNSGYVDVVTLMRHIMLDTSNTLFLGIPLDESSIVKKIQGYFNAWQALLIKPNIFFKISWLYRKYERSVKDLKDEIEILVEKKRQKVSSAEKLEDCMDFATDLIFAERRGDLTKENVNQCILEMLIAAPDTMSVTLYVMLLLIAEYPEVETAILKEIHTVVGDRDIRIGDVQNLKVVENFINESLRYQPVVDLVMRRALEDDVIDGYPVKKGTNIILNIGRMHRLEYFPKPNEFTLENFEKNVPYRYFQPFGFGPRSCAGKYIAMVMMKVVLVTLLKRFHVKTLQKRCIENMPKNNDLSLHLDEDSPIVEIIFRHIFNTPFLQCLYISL

[3] = Cytotoxicity against human PC3 cells after 48 hrs by MTT assay; format: functional, cell-based; settings: PC-3, 48 h
HeLa = test: Cytotoxicity against human HeLa cells after 48 hrs by MTT assay; format: functional, cell-based
Aromatase [4] = target: T1, Aromatase; test: Inhibition of human aromatase extracted from placental microsomes assessed as 3H2O formation from [1b,2b-3H] testosterone preincubated for 5 mins followed by protein addition measured at 7 to 21 mins by liquid scintillation counting analysis
Aromatase [5] = target: T1, Aromatase; test: Time dependent inactivation of human aromatase extracted from placental microsomes using [1,2-3H]androst-4-ene-3,17-dione
Aromatase [6] = target: T1, Aromatase; test: Competitive inhibition of human aromatase extracted from placental microsomes by Dixon plot analysis in presence of [1,2-3H]androstenedione
Aromatase [7] = target: T1, Aromatase; test: Competitive inhibition of human placental aromatase in presence of testosterone
Aromatase [8] = target: T1, Aromatase; test: Inhibition of aromatase (unknown origin); set-up: inhibition (INH): concentration or dose not given beside the values; settings: human
Aromatase [9] = target: T2, Aromatase; test: Competitive inhibition of aromatase in ovarian fraction extracted from PMSG pretreated Wistar rat by double reciprocal plot analysis in presence of testosterone
Aromatase [10] = target: T1, Aromatase; test: Inhibition of human aromatase extracted from placental microsomes
Aromatase [11] = target: T1, Aromatase; test: Inhibition of human aromatase extracted from placental microsomes using [1beta-3H]androstenedione as substrate after 15 mins by scintillation counting analysis
Aromatase [12] = target: T1, Aromatase; test: Inhibition of human aromatase extracted from placental microsomes using [1,2-3H]androstenedione as substrate after 20 mins by scintillation counting analysis
Aromatase [13] = target: T1, Aromatase; test: Irreversible inhibition of human aromatase extracted from placental microsomes by double reciprocal plot analysis in presence of [1beta,2beta-3H]androstenedione
[14] = Antitumor activity against NMU-induced mammary tumor in rat; format: functional
Aromatase [15] = target: T2, Aromatase; test: Inhibition of aromatase in denucleated ovarian fraction extracted from PMSG pretreated Wistar rat by using testosterone as substrate at 1 uM
Aromatase [16] = target: T1, Aromatase; test: Inhibition of human aromatase extracted from placental microsomes using [1beta-3H]androstenedione as substrate after 20 mins by radiometric assay
Aromatase [17] = target: T1, Aromatase; test: Irreversible inhibition of human aromatase extracted from placental microsomes; settings: read-out: Ki(app)
Aromatase [18] = target: T1, Aromatase; test: Inhibition of human aromatase extracted from placental microsomes using [1beta-3H]androstenedione as substrate after 20 mins by scintillation counting analysis
Aromatase [19] = target: T1, Aromatase; test: Time dependent inhibition of human aromatase extracted from placental microsomes using [1beta,2beta-3H]androstenedione as substrate by scintillation counting analysis
Aromatase [20] = target: T2, Aromatase; test: Inhibition of aromatase in denucleated ovarian fraction extracted from PMSG pretreated Wistar rat using testosterone as substrate at 50 uM by radioimmuno assay
Aromatase [21] = target: T1, Aromatase; test: Inhibition of aromatase (unknown origin) at 5 uM relative to control

## CS[C@]12C=CC(=O)C=C1CC[C@H]1[C@@H]3CC[C@H](O)[C@@]3(C)CC[C@@H]12
Aromatase [1]
  Ki: 610 nM

## C[C@]12CC[C@@H]3c4ccc(O)cc4CC[C@H]3[C@@H]1CC(=O)OC2
Aromatase [2]
  inhibition at 10 µM: 1.5%

## C=C1C[C@@H]2[C@H]([C@H](O)C[C@]3(C)C(=O)CC[C@@H]23)[C@@]2(C)C=CC(=O)C=C12
[3]
  IC50: 24900 nM
HeLa
  IC50: 16800 nM

## COc1cc(/C=C2\C[C@H]3[C@@H]4CCC5=CC(=O)CC[C@]5(C)[C@H]4CC[C@]3(C)C2=O)ccc1OCCCn1ccnc1
Aromatase [4]
  IC50: 4400 nM

## C[C@]12CC[C@H]3[C@@H](CCC4=CC(=O)CC[C@@]43C(F)F)[C@@H]1CCC2=O
Aromatase [5]
  Ki: 1000 nM

## C[C@]12CC[C@H]3[C@@H](CCC4=CCCC[C@@]43CO)[C@@H]1CCC2=O
Aromatase [6]
  Ki: 12.5 nM

## C[C@]12CCC(=O)C3=C1C(=Nc1ccccc1S3)C[C@@H]1[C@@H]2CC[C@]2(C)C(=O)CC[C@@H]12
Aromatase [7]
  IC50: 42300 nM

## CC(=O)[C@@]1(C)CC[C@H]2[C@@H](CCC3=CC(=O)CC[C@@]32C)C1CC#N (some centres not stated)
Aromatase [8]
  inhibition (INH): 46.5%
Aromatase [9]
  Ki: 270 nM

## C[C@]12CC[C@H]3[C@@H](Cc4n[nH]c5c4[C@]3(C)CCC5=O)[C@@H]1CC[C@@H]2O
Aromatase [10]
  IC50: 236 nM

## C[C@]12CC[C@H](O)C(N=[N+]=[N-])=C1CC[C@@H]1[C@@H]2CC[C@]2(C)/C(=N/O)CC[C@@H]12
Aromatase [11]
  INH: 32.8%

## C[C@]12CCC(=O)C=C1[C@@H](OC(=O)CBr)C[C@@H]1[C@@H]2CC[C@]2(C)C(=O)CC[C@@H]12
Aromatase [12]
  IC50: 2800 nM

## C[C@]12CC[C@H]3[C@@H](CCC4=CC(=O)CC[C@@]43S)[C@@H]1CC[C@@H]2O
Aromatase [13]
  Ki: 106 nM

## C[C@]12CCC(=O)C(O)=C1CC[C@@H]1[C@@H]2CC[C@]2(C)C(=O)CC[C@@H]12 [FORMESTANE]
[14]
  Activity: 67%
Aromatase [15]
  inhibition at 1 µM: 99.2%
Aromatase [16]
  IC50: 1200 nM
Aromatase [17]
  Ki: 43 nM

## C[C@]12C=CC(=O)C=C1CC[C@@H]1[C@@H]2CC[C@]2(C)C(=O)/C(=C/c3ccc4c(c3)OCO4)C[C@@H]12
Aromatase [18]
  IC50: 6400 nM

## C[C@]12CC[C@H]3[C@@H](CCC4=CC(=O)CC[C@@]43CS)[C@@H]1CCC2=O
Aromatase [19]
  Ki: 34 nM

## C[C@]12CC[C@@H]3c4ccc(OCc5ccccc5)cc4CC[C@H]3[C@@H]1CC(=O)OC2
Aromatase [20]
  inhibition at 50 µM: 26.7%

## CC(=O)O[C@H]1CC[C@@]2(C)C(=CC[C@H]3C(CC#N)[C@@](C)(CBr)CC[C@@H]32)C1 (some centres not stated)
Aromatase [21]
  inhibition at 5 µM: 19.4%
